Measurements taken from ChEMBL document CHEMBL1201862, “PubChem BioAssay data set” (2004).
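1) Cells in 96-well plates. 2) Compound, 48 h, 5 concentrations. 3) Linear interpolation between surrounding doses. 4) Unreached endpoint = highest concentration. GI50 is the concentration that inhibits growth by half.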 The source made the active and inactive calls. Cut-off read from the data, not from the text of the source: active = GI50 up to about 1.1 µM and inactive = higher.

What was measured:
Experiment in all cases: DTP human tumour cell line panel, 48 h
HCT-116 = test system: HCT-116
OVCAR-8 = test system: OVCAR-8
SW-620 = test system: SW-620
SF-295 = test system: SF-295
DU-145 = test system: DU-145
T47D = test system: T47D
NCI-H23 = test system: NCI-H23
SK-OV-3 = test system: SK-OV-3
Hs-578T = test system: Hs-578T
NCI-H460 = test system: NCI-H460
SR = test system: SR
MDA-N = test system: MDA-N
MCF7 = test system: MCF7
NCI-H522 = test system: NCI-H522
RXF 393 = test system: RXF 393
OVCAR-4 = test system: OVCAR-4
MDA-MB-231 = test system: MDA-MB-231
TK-10 = test system: TK-10
EKVX = test system: EKVX
RPMI-8226 = test system: RPMI-8226

Measured: GI50

O=C(O)c1cc(CCc2ccc(O)c(O)c2)ccc1O
inactive: HCT-116 > 100 µM | OVCAR-8 > 100 µM | SW-620 > 100 µM | SF-295 > 100 µM | DU-145 > 100 µM | T47D > 100 µM | NCI-H23 > 100 µM | SK-OV-3 > 100 µM | Hs-578T > 100 µM | NCI-H460 > 100 µM | SR 24.4 µM | MDA-N 18.4 µM | MCF7 > 100 µM | NCI-H522 > 100 µM

CC(=O)CC1=C(OC(C)C)C2(OCCO2)C1O (centres undefined)
inactive: HCT-116 > 100 µM | RXF 393 > 100 µM | OVCAR-8 > 100 µM | SW-620 > 100 µM | SF-295 > 100 µM | DU-145 > 100 µM | OVCAR-4 > 100 µM | T47D > 100 µM | NCI-H23 > 100 µM | SK-OV-3 > 100 µM | Hs-578T > 100 µM | NCI-H460 > 100 µM | MDA-MB-231 > 100 µM | MDA-N > 100 µM | TK-10 > 100 µM | MCF7 > 100 µM | NCI-H522 > 100 µM | EKVX > 100 µM

CC(=O)NC1C(OCc2ccccc2)OC(CO)C(O)C1OCC(=O)N[C@@H](C)C(=O)N[C@H](CCC(=O)NCCCNc1ccc([N+](=O)[O-])c2[nH]c3ccccc3c(=O)c12)C(N)=O (some centres undefined)
inactive: HCT-116 45.4 µM | RXF 393 63.5 µM | OVCAR-8 92.9 µM | SW-620 > 100 µM | SF-295 56.6 µM | DU-145 60.8 µM | OVCAR-4 34 µM | T47D > 100 µM | NCI-H23 > 100 µM | SK-OV-3 > 100 µM | Hs-578T 26.2 µM | NCI-H460 46.1 µM | SR > 100 µM | RPMI-8226 > 100 µM | MDA-MB-231 > 100 µM | MDA-N > 100 µM | TK-10 41.7 µM | NCI-H522 29.3 µM | EKVX 43 µM

NC(Cc1ccccc1)c1nccs1 (centres undefined)
inactive: HCT-116 > 100 µM | OVCAR-8 > 100 µM | SW-620 > 100 µM | SF-295 > 100 µM | DU-145 > 100 µM | OVCAR-4 > 100 µM | NCI-H23 > 100 µM | SK-OV-3 > 100 µM | Hs-578T > 100 µM | SR > 100 µM | RPMI-8226 > 100 µM | MDA-MB-231 > 100 µM | MDA-N > 100 µM | TK-10 > 100 µM | MCF7 > 100 µM | NCI-H522 > 100 µM | EKVX > 100 µM

C=C(C)CC1(O)C(=O)C(OCC)=C1OCC (centres undefined)
inactive: HCT-116 > 100 µM | OVCAR-8 > 100 µM | SW-620 > 100 µM | SF-295 > 100 µM | DU-145 > 100 µM | OVCAR-4 > 100 µM | T47D > 100 µM | NCI-H23 > 100 µM | SK-OV-3 > 100 µM | Hs-578T > 100 µM | NCI-H460 > 100 µM | MDA-MB-231 > 100 µM | MDA-N > 100 µM | TK-10 > 100 µM | MCF7 > 100 µM | NCI-H522 > 100 µM | EKVX > 100 µM

COc1cc(O)c2c(=O)cc(C3(OC(C)=O)C=CC(OC4OC(CO)C(O)C(O)C4O)C=C3)oc2c1 (centres undefined)
inactive: HCT-116 > 100 µM | RXF 393 > 100 µM | OVCAR-8 > 100 µM | SW-620 > 100 µM | SF-295 > 100 µM | DU-145 > 100 µM | OVCAR-4 > 100 µM | T47D > 100 µM | NCI-H23 > 100 µM | SK-OV-3 > 100 µM | NCI-H460 > 100 µM | SR > 100 µM | RPMI-8226 > 100 µM | MDA-MB-231 > 100 µM | MDA-N > 100 µM | TK-10 > 100 µM | MCF7 > 100 µM | NCI-H522 > 100 µM | EKVX > 100 µM

COc1ccc(-c2c(C(=O)Nc3ccccc3)c(-c3ccccc3)n(C3OC(CO)C(O)C(O)C3O)c(=S)c2C#N)cc1 (centres undefined)
inactive: HCT-116 > 100 µM | RXF 393 > 100 µM | OVCAR-8 > 100 µM | SW-620 > 100 µM | SF-295 > 100 µM | DU-145 > 100 µM | OVCAR-4 > 100 µM | NCI-H23 > 100 µM | Hs-578T > 100 µM | NCI-H460 > 100 µM | SR > 100 µM | RPMI-8226 > 100 µM | MDA-N > 100 µM | MCF7 > 100 µM | NCI-H522 > 100 µM | EKVX > 100 µM

O=c1[nH]nc(Cn2c3ccc(Br)cc3c3nc4ccccc4nc32)n1C1CCCCC1
inactive: HCT-116 70.1 µM | RXF 393 23.8 µM | OVCAR-8 12.8 µM | SW-620 52.7 µM | SF-295 32.7 µM | DU-145 32 µM | OVCAR-4 18.6 µM | T47D 57.9 µM | NCI-H23 12.9 µM | SK-OV-3 87.1 µM | NCI-H460 29.4 µM | SR 2.08 µM | RPMI-8226 21.3 µM | MDA-MB-231 > 100 µM | MDA-N 75.3 µM | TK-10 29.8 µM | MCF7 43.7 µM | EKVX 90.8 µM

CCCCC(C(=O)NCCNC(=O)CCC(=O)N(C)O)C(=O)NCCNC(=O)CCC(=O)N(C)O
inactive: HCT-116 > 100 µM | RXF 393 > 100 µM | OVCAR-8 > 100 µM | SW-620 > 100 µM | SF-295 > 100 µM | DU-145 > 100 µM | OVCAR-4 > 100 µM | T47D > 100 µM | NCI-H23 > 100 µM | SK-OV-3 > 100 µM | NCI-H460 > 100 µM | SR > 100 µM | RPMI-8226 > 100 µM | MDA-MB-231 > 100 µM | MDA-N > 100 µM | TK-10 > 100 µM | MCF7 > 100 µM | NCI-H522 > 100 µM | EKVX > 100 µM

O=[N+]([O-])/C(C(Cl)=C(Cl)Cl)=C(/Nc1cccc2cccnc12)n1nnc2ccccc21
inactive: HCT-116 19.3 µM | OVCAR-8 13.8 µM | SW-620 15.8 µM | SF-295 17.9 µM | OVCAR-4 17.2 µM | T47D 19 µM | NCI-H23 15.5 µM | SK-OV-3 15.9 µM | Hs-578T 11.9 µM | NCI-H460 31.3 µM | RPMI-8226 24.5 µM | MDA-N 13.9 µM | MCF7 19.6 µM | EKVX 24.4 µM

S=C(Nc1ccc(Br)cn1)NC12CC3CC(CC(C3)C1)C2
inactive: HCT-116 10.7 µM | RXF 393 15.2 µM | OVCAR-8 7.57 µM | SW-620 49.2 µM | SF-295 17 µM | DU-145 41.2 µM | OVCAR-4 17.1 µM | T47D 49.1 µM | NCI-H23 15.3 µM | SK-OV-3 23.1 µM | NCI-H460 28.5 µM | SR 36.1 µM | RPMI-8226 65.2 µM | MDA-MB-231 17.8 µM | MDA-N 15.8 µM | MCF7 26.3 µM | NCI-H522 11.2 µM | EKVX 18.5 µM
